Legend:
[1] = target: P2Y6 (Homo sapiens, UniProt Q15077); assay: IP3 assay in P2RY6-transfected HEK293 cells; assay type: cell-based; set-up: expressed in transfected cells; host or cells: HEK293; conditions: Fig. 3a, read-out: EC50, IP3 levels
Experimental: To measure intracellular IP3 the HitHunter® Inositol (1,4,5) Triphosphate Assay (DiscoveRx, USA) was used according to manufacturer′s protocol. HEK293 cells stably transfected with hP2RY6 were seeded in a 384-well Black microtiter plate (15,000 cells/well) (Greiner Bio One, Germany) and incubated with indicated concentrations of UDP and PGE2-G for 20 seconds. Reaction was stopped by adding 5 µl 0.2 N perchloric acid and measurement of IP3 was performed with the Fusion AlphaScreen multilabel reader (PerkinElmer Life Sciences) according to manufacturer′s protocol. To measure IP1, HEK293 cells expressing wildtype and mutant P2Y6 were seeded into 384-well plates (5,000 cells/well) 24 h prior assay. After aspiration of the medium, cells were incubated with indicated concentrations of agonists/antagonist for 1 h. IP1 measurements using the IP-one HTFR® assay kit (Cisbio assays, USA) were performed according to manufacturer′s protocol. The assays were performed with a final concentration of 1% DMSO.

[2] = target: T1, P2Y1 (Homo sapiens, UniProt P47900); assay: Intracellular Ca2+ release in HEK293 cells transfected with P2RY1; assay type: cell-based; conditions: HEK293 transfected with P2RY1, Fig. 3f
T1 construct: expressed in transfected cells; host or cells: HEK293
Experimental: For fluorometric measurements of intracellular Ca^2+ levels with the FlexStationII instrument (Molecular Devices), RAW264.7 and H1819 cells were seeded into 96-well plates (3.0 × 10^4 cells/well) 24 h prior to assay. Ca^2+ measurements with transiently transfected HEK293 cells were performed 48 h after transfection. Cells were loaded with 200 µl Calcium 5 reagent (Explorer Kit, Molecular Devices, USA) for 60 min at 37 °C, and the assay was performed as described. Agonists and inhibitors were solved in DMSO (100x) and diluted […] in 96-well compound plates containing HBSS. 50 µl of compound solution were added to the assay plate resulting in final concentration of 1% DMSO. Fold-response was calculated by RFUmax − RFUmin (ligand)/RFUmax − RFUmin (vehicle). EC50 values were calculated by using GraphPad Prism6 software (GraphPad, USA).

T1 sequence (P47900 whole entry, species assumed): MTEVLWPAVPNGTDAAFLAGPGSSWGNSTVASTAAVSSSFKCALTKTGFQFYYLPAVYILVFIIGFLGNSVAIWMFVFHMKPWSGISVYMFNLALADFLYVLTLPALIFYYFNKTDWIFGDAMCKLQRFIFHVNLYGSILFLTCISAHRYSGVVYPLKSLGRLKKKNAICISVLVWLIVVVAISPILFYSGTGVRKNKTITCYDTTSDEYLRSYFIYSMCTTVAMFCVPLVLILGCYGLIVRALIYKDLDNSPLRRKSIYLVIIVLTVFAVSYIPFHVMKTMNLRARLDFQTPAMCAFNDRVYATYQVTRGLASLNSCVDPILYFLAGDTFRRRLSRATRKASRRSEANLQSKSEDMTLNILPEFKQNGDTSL
Sequence of P2Y6 (Q15077 whole entry, the tested form may be a part): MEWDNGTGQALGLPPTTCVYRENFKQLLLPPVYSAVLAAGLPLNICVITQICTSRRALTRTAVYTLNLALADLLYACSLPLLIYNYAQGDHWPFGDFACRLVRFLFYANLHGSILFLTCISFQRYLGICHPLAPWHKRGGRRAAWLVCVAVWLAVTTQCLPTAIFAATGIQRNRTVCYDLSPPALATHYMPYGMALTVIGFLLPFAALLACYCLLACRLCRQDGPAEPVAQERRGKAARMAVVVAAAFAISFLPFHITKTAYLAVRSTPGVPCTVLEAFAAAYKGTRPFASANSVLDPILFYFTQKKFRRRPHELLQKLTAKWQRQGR

EC50 [1] [nM] | Compound | Ca2+ release [2]
2.7 ± 0.1 | O=c1ccn([C@@H]2O[C@H](COP(=O)(O)OP(=O)(O)O)[C@@H](O)[C@H]2O)c(=O)[nH]1 [UDP] | –
– | Prostaglandin E2 glyceryl ester [PGE2-G] | not and neither P2Y1 nor P2Y12 showed activity
